These results are taken from publication PMC8998978, “Toward a Treatment of Cancer: Design and In Vitro/In Vivo Evaluation of Uncharged Pyrazoline Derivatives as a Series of Novel SHP2 Inhibitors” (International Journal of Molecular Sciences, 2022).

Data set [1] concerns the target T1, recombinant human SHP2 protein (Homo sapiens, UniProt Q06124).
T1 sequence (Q06124 1-593): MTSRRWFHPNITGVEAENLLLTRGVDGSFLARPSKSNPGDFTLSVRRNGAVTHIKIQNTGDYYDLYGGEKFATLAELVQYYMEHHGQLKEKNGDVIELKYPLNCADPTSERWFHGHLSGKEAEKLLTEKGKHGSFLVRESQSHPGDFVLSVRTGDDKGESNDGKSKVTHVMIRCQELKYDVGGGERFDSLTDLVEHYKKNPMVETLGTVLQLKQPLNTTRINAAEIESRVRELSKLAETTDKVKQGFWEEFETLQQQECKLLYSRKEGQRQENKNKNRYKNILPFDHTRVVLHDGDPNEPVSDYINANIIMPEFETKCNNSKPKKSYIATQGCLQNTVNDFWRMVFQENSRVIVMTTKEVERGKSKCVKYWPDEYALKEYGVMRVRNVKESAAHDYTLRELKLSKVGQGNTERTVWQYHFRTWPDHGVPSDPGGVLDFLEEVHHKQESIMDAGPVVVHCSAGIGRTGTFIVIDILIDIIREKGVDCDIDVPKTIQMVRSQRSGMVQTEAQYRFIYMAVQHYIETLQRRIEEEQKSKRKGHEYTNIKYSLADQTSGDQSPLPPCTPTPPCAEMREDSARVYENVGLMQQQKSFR
The data set can be described thus: Inhibition type of SHP2 (double reciprocal plot, pNPP). Format: biochemical. To be noted: 4o 0, 0.5, 1, 2 µM; various pNPP concentrations. Here is the method: Inhibition kinetic studies were performed with various concentrations of pNPP in the absence or presence of inhibitors. The experimental results were analyzed using double reciprocal plotting to evaluate the type of inhibition.
The experimental process was similar to the SHP2 inhibition assay. In the assay, the initial rates at a series of pNPP concentrations were determined at various fixed inhibitor concentrations of 4o (0 µM, 0.5 µM, 1 µM and 2 µM) as described above. The values of 1/[S] and 1/[V] were obtained from the substrate concentration and initial reaction rate, and were plotted on the x-axis and y-axis, respectively. The inhibition type of SHP2 was determined according to the intersection characteristics of the obtained approximate line.

Data set [2] deals with HCT116 cells. Kind of data set: Western blotting of apoptosis-related proteins. Format: cell-based, human. The conditions noted are these: HCT116, 4o 2.5, 5 and 10 μM, 24 h, versus DMSO. The method, then: HCT116 cells were harvested, lysed on ice in RIPA buffer (Beyotime Institute of Biotechnology, Shanghai, China) and boiled. Protein concentration was measured by BCA protein assay kit (Beyotime Institute of Biotechnology, Shanghai, China). The protein samples were separated by SDS-PAGE and transferred to the membrane (Pall, New York, NY, USA). Afterwards, the membrane was immunoblotted with the corresponding primary antibody (C-parp (#5625), C-cas9 (#9505), C-cas3 (#9661), Bcl-2 (#4223), Bax (#5023), SHP2 (#3752), P-Erk1/2 (#9101) and Erk1/2 (#9102), 1:1000, Cell Signaling Technology, Danvers, MA, USA; Tubulin (#ET1602-4), 1:5000, HUABIO, Hangzhou, China) and the appropriate HRP-conjugated secondary antibody, and determined with ECL detection reagent (Thermo Scientific, Waltham, MA, USA).

For data set [3], the target named is T2, SHP2 protein in HCT116 cells (Homo sapiens, UniProt Q06124).
T2 construct: endogenous in cells; host or cells: HCT116
T2 sequence (Q06124 1-593): T1 sequence (Q06124 1-593)
The data set can be described thus: Cellular thermal shift assay (CETSA). Format: cell-based. The conditions noted are these: HCT116, 10 μM 4o, 3 h, versus DMSO. The method, then:
The assay was performed as described previously. In brief, HCT116 cells were treated with DMSO or 4o for 3 h. Cells were resuspended in PBS and divided into four aliquots, and then the cell lysates were heated at different temperatures by T100^TM Thermal Cycler (Bio-Rad, Hercules, CA, USA). The heated cells were subjected to repeated freezing and thawing with liquid nitrogen for three times followed by centrifugation at 20,000× g for 20 min at 4 °C. Finally, the supernatants were gathered and boiled for 10 min after adding the loading buffer. Protein levels were assessed by Western blotting.

The nature of data set [4]: Acute toxicity assay. The format is in vivo. The conditions noted are these: for Mortality: 14 days observation. Here is the method:
In acute toxicity assay, 18 female Kunming mice (Jinan Pengyue Experimental Animal Breeding Co., Ltd., Jinan, China), 18–22 g of weight, were used. The mice were randomly divided into three groups (n = 6), and treated with vehicle (0.5% CMC-Na solution) or 4o (300, 2000 mg/kg) by gavage once. The body weight, toxicity effect, general behavior and mortality of mice were monitored within 14 days after 4o treatment. In subacute toxicity assay, 10 male and 10 female Kunming mice (Jinan Pengyue Experimental Animal Breeding Co., Ltd., Jinan, China), 18–22 g of weight, were used. The mice were randomly divided into two groups with 5 males and 5 females, and were orally treated with vehicle (0.5% CMC-Na solution) or 4o (1000 mg/kg) once a day for 28 days. […]. After 28 days of treatment, the mice were anaesthetized with isoflurane and killed by decapitation. The heart, liver, spleen and kidney tissues were collected, and histologically analyzed by H&E staining.

The target in data set [5] is T1, recombinant human SHP2 protein. The data set can be described thus: SHP2 inhibition assay (pNPP substrate). Format: biochemical. To be noted: pNPP 4 mM, SHP2 240 nM, 37 °C, 30 min; means ± SD. Here is the method:
pGEX-4T1 SHP2 WT (plasmid #8322) was purchased from Addgene. […] Then, 0.2 mM IPTG (Sangon Biotech, Shanghai, China) was added to induce the expression of protein at 30 °C for 4 h followed by centrifugation and cells collection. Cells were then broken by ultrasound in lysis buffer (20 mM Tris–HCl (pH 8.0), 100 mM KCl, 10% glycerol, 1 mM DTT, 0.5% Triton X-100) on ice. The supernatant was collected by centrifugation at 10,000× g for 15 min at 4 °C. The BeaverBeads GSH (Beaver Biosciences Inc., Guangzhou, China) washed by lysis buffer were incubated with the supernatant for 2 h at 4 °C. […] Then, the experiment was performed in a final volume of 100 μL containing 10 mM Tris–HCl (pH 7.5), 25 mM NaCl, 1 mM EDTA and 4 mM pNPP in a 96-well plate at 37 °C for 30 min. The amount of product p-nitrophenol was determined by the absorbance at 405 nm in a multimode reader (Berthold Technologies GmbH & Co.KG, Bad Wildbad, Baden Württemberg, Germany). The IC50 value was calculated by GraphPad Prism 7.0 software (GraphPad Inc, San Diego, CA, USA).

On to `CCOc1ccc(Oc2ccc(C3=NN(C4=NC(=O)CS4)C(c4cc(O)c(O)c(Br)c4Br)C3)cc2)cc1` (stereo not shown) [Compound 4o, 2-(5-(2,3-dibromo-4,5-dihydroxyphenyl)-3-(4-(4-ethoxyphenoxy)phenyl)-4,5-dihydro-1H-pyrazol-1-yl)thiazol-4(5H)-one], for which the “Inhibition type of SHP2” value in data set [1] was “competitive SHP2 inhibitor”. In data set [2], the Bax/Bcl-2 ratio result was “up-regulated”; the “Levels of cleaved parp, cleaved caspase9 and cleaved caspase3” value is “increased”. Besides, in data set [3], the “Stability of SHP2 protein (CETSA)” value is “obviously increased”. In addition, in data set [4] (300 mg/kg single oral dose), the “Body Weight (g) Day 0” value is recorded as 24.41 ± 0.64 g, the “Body Weight (g) Day 7” value turned out to be 28.78 ± 0.78 g, the “Body Weight (g) Day 14” value is listed as 30.75 ± 0.99 g and the Mortality was 0/6. Moreover, in data set [4] (2000 mg/kg single oral dose), the “Body Weight (g) Day 0” value is reported as 25.19 ± 1.45 g, the “Body Weight (g) Day 7” value came out at 30.51 ± 0.88 g, the “Body Weight (g) Day 14” value is 31.43 ± 1.09 g and the Mortality is reported as 0/6. In data set [5], the IC50 is 1.56 ± 0.25 µM.
